Data on two molecules can be found in BindingDB's records for patent US20230357269 (Les Laboratoires Servier, 2023).

SMILES strings stand for the structures.

In this assay the target is Leucine-rich repeat serine/threonine-protein kinase 2 (Homo sapiens, UniProt Q5S007). As to the kind of experiment: LRRK2 Kinase Activity Assay. As to the method:
LRRK2 Kinase reactions were carried out in 384-well white polystyrene plates in a final volume of 6 μl using ADP-Glo Kinase Assay kit (Promega Corp.). Compound and substrates (LRRKtide peptide and ATP) in assay buffer were first dispensed in wells. Kinase reaction was then started by the addition of human recombinant LRRK2 protein. After 1h-incubation at 37 C., the enzymatic reaction was stopped by the addition of 6 μl of ADP-Glo Reagent-1 and an additional 40-minutes incubation at 23 C. (residual ATP depletion). A final 30-minutes incubation after 12 μL reagent-2 addition (ADP to ATP conversion and luciferin/luciferase reaction) was performed before luminescent signal acquisition (EnVision multimode plate reader-PerkinElmer, Inc.). Data from 10 individual concentrations of tested compounds (N=2) were fitted (XLfit -ID Business Solutions Ltd) to deliver IC50s (compound concentration leading to 50% inhibition of reference enzymatic activity).

Leucine-rich repeat serine/threonine-protein kinase 2, sequence (Q5S007 whole entry): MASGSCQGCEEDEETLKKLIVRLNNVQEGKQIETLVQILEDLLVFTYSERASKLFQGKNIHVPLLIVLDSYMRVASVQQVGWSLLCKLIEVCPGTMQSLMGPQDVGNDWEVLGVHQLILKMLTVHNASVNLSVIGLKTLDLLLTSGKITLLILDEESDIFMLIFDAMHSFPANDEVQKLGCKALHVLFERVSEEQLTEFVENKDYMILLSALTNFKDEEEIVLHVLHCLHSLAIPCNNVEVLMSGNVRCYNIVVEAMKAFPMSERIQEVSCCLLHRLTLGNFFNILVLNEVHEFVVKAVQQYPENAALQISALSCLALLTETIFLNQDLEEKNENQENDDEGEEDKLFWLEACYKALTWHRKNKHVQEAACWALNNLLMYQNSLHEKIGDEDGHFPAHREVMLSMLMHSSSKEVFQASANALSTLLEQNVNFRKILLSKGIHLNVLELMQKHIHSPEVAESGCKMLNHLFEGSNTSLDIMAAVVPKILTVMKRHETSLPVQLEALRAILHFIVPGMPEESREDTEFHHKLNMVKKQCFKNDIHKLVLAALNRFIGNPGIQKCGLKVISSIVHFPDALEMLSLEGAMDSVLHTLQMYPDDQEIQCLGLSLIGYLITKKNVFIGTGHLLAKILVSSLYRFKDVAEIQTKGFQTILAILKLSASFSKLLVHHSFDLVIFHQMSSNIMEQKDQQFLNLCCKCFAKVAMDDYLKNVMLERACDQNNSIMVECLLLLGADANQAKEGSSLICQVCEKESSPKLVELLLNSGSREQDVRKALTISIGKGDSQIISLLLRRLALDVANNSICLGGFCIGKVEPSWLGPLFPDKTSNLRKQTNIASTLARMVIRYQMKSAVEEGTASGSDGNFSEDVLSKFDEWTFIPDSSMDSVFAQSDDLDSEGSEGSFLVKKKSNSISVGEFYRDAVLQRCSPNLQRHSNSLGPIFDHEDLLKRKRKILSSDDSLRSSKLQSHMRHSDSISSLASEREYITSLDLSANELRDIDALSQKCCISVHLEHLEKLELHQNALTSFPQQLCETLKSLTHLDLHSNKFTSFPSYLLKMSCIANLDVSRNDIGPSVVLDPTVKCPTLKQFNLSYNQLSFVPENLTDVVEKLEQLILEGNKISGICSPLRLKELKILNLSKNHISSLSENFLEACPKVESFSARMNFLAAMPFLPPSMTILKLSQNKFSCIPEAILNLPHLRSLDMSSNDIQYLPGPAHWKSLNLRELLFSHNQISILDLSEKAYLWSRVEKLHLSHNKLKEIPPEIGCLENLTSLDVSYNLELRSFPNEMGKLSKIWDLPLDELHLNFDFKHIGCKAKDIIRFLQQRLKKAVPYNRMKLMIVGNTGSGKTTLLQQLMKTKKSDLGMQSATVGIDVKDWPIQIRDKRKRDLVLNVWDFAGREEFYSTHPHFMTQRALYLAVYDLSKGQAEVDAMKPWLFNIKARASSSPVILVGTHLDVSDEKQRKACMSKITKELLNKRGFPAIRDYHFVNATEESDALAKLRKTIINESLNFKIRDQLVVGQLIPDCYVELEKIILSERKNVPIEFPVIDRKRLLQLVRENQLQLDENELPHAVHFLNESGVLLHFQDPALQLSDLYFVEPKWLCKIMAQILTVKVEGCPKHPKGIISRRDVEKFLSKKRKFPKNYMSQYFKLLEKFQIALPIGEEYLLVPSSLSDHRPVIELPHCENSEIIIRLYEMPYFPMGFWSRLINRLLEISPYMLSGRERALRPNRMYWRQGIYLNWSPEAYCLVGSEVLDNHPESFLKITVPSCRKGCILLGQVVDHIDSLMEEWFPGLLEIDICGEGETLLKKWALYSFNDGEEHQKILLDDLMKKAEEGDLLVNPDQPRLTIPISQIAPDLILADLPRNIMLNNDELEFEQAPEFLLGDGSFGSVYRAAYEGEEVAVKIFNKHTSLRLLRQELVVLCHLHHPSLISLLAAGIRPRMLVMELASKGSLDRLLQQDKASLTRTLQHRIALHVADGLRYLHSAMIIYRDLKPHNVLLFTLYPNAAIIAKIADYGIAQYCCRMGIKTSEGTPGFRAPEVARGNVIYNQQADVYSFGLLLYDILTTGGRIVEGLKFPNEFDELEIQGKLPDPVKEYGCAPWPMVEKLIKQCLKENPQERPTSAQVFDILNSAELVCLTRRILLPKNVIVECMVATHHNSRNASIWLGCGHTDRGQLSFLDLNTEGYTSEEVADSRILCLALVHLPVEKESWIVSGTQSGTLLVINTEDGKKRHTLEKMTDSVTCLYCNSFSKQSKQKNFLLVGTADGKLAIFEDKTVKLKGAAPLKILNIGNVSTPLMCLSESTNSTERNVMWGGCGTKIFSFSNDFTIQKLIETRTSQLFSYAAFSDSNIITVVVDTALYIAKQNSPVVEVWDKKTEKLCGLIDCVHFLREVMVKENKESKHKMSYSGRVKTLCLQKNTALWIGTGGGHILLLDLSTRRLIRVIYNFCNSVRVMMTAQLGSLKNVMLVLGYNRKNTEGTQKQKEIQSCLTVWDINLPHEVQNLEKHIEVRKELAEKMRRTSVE

As to `O=C1NCCCOc2ccc3[nH]nc(c3c2)-c2cc(Br)cc(c2)CO1` [US20230357269, Example 9], the IC50 (commonly the concentration at which inhibition is half-maximal) was less than 10 nM.

As for `O=C1NCCCOc2ccc3[nH]nc(c3c2)-c2ccc(Br)c(c2)CO1` [US20230357269, Example 30], the IC50 was less than 10 nM.
